Results: US10253002B2, “Compounds and methods of treating infections” (Neoculi Pty Ltd., priority 2013, dated 2019)
Several values for one entry are separate records, joined by “and”; a condition that tells them apart may be missing. Equal values may be shown once.

Experiments:
Assay in all cases: Broth microdilution MIC, Example 7 (NCL812 and analogues)
[1] = tested on: MRSA; type: cell-based, Staphylococcus aureus
Outline: (§1)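 MICs in μg/ml were read as growth inhibition by eye, checked at 600 nm absorbance against drug-free wells, following CLSI broth microdilution. Strains: two MRSA, two VRE; duplicates, repeated once more when results diverged beyond one dilution step.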

[2] = tested on: VRE; type: cell-based, Enterococcus spp.
Outline: as §1

[3] = tested on: Escherichia coli; type: cell-based; details: 24 hours
[4] = tested on: Pseudomonas aeruginosa; type: cell-based; details: 24 hours
[5] = isolate MRSA 1, 24 hours, 1st and 2nd replicate rows
[6] = isolate MRSA 2, 24 hours, 1st and 2nd replicate rows
[7] = isolate VRE 1, 24 hours, 1st and 2nd replicate rows
[8] = isolate VRE 2, 24 hours, 1st and 2nd replicate rows
[9] = MRSA 1, 24 hours, duplicate lines per compound
[10] = MRSA 2, 24 hours, duplicate lines per compound
[11] = VRE 1, 24 hours, duplicate lines per compound
[12] = VRE 2, 24 hours, duplicate lines per compound
[13] = E. coli, duplicate lines per compound
[14] = P. aeruginosa, duplicate lines per compound

Compound | MIC (μg/ml) at 24 hours, MRSA 1 [1, 9] | MIC (μg/ml) at 24 hours, MRSA 2 [1, 10] [µg/mL] | MIC (μg/ml) at 24 hours, VRE 1 [2, 11] [µg/mL] | MIC (μg/ml) at 24 hours, VRE 2 [2, 12] | MIC (μg/ml) at 24 hours, E. coli [3, 13] [µg/mL] | MIC (μg/ml) at 24 hours, P. aeruginosa [4, 14] [µg/mL] | other results
FC(F)(F)c1ccc(C=NNC(=S)NN=Cc2ccc(C(F)(F)F)cc2)cc1 [NCL063] | – | – | – | – | – | – | MIC (μg/ml) at 24 hours, MRSA 1 [1, 5]: >128 µg/mL; MIC (μg/ml) at 24 hours, MRSA 2 [1, 6]: >128 µg/mL; MIC (μg/ml) at 24 hours, VRE 1 [2, 7]: >128 µg/mL; MIC (μg/ml) at 24 hours, VRE 2 [2, 8]: >128 µg/mL; MIC (μg/ml) at 24 hours, E. coli ([3]; 1st and 2nd replicate rows): >128 µg/mL; MIC (μg/ml) at 24 hours, P. aeruginosa ([4]; 1st and 2nd replicate rows): >128 µg/mL
Cl.N=C(NN=Cc1ccoc1)NN=Cc1ccoc1 [NCL095] | >128 µg/mL | >128 | >128 | >128 µg/mL | >128 | >128 | –
CCCc1ccc(C=NNC(=N)NN=Cc2ccc(CCC)cc2)cc1.Cl [NCL 121] | 32 µg/mL | 32 | 8 | 32 µg/mL and 64 µg/mL | >128 | >128 | –
COc1ccc(C=NNC(=N)NN=Cc2ccc(OC)c(O)c2)cc1O.Cl [NCL 125] | >128 µg/mL | >128 | >128 | >128 µg/mL | >128 | >128 | –
Cl.N=C(NN=Cc1cc(Cl)cc(Cl)c1)NN=Cc1cc(Cl)cc(Cl)c1 [NCL114] | >128 µg/mL | >128 | >128 | >128 µg/mL | >128 | >128 | –
Cc1ccc(/C=N/NC(=N)N/N=C/c2ccc(C)cc2)cc1.Cl [NCL 038] | 8 µg/mL | 8 | 8 | 8 µg/mL | >128 | >128 | –
CCOC(=O)N(/N=C/c1ccc(Cl)cc1)C(N)=N/N=C/c1ccc(Cl)cc1 [NCL224] | – | – | – | – | – | – | MIC (μg/ml) at 24 hours, MRSA 1 ([1]; MRSA 1, 24 hours): >128 µg/mL; MIC (μg/ml) at 24 hours, MRSA 2 ([1]; MRSA 2, 24 hours): >128 µg/mL; MIC (μg/ml) at 24 hours, VRE 1 ([2]; VRE 1, 24 hours): >128 µg/mL; MIC (μg/ml) at 24 hours, VRE 2 ([2]; VRE 2, 24 hours): >128 µg/mL; MIC (μg/ml) at 24 hours, E. coli ([3]; E. coli): >128 µg/mL; MIC (μg/ml) at 24 hours, P. aeruginosa ([4]; P. aeruginosa): >128 µg/mL
O=C(N/N=C/c1ccc(F)cc1)N/N=C/c1ccc(F)cc1 [NCL003] | – | – | – | – | – | – | MIC (μg/ml) at 24 hours, MRSA 1 [1, 5]: >128 µg/mL; MIC (μg/ml) at 24 hours, MRSA 2 [1, 6]: >128 µg/mL; MIC (μg/ml) at 24 hours, VRE 1 [2, 7]: >128 µg/mL; MIC (μg/ml) at 24 hours, VRE 2 [2, 8]: >128 µg/mL; MIC (μg/ml) at 24 hours, E. coli ([3]; 1st and 2nd replicate rows): >128 µg/mL; MIC (μg/ml) at 24 hours, P. aeruginosa ([4]; 1st and 2nd replicate rows): >128 µg/mL
Fc1cccc(/C=N/NC(=S)N/N=C/c2cccc(F)c2)c1 [NCL066] | – | – | – | – | – | – | MIC (μg/ml) at 24 hours, MRSA 1 [1, 5]: >128 µg/mL; MIC (μg/ml) at 24 hours, MRSA 2 [1, 6]: >128 µg/mL; MIC (μg/ml) at 24 hours, VRE 1 [2, 7]: >128 µg/mL; MIC (μg/ml) at 24 hours, VRE 2 [2, 8]: >128 µg/mL; MIC (μg/ml) at 24 hours, E. coli ([3]; 1st and 2nd replicate rows): >128 µg/mL; MIC (μg/ml) at 24 hours, P. aeruginosa ([4]; 1st and 2nd replicate rows): >128 µg/mL
Nc1nc(N/N=C/c2ccccc2)nc(N/N=C/c2ccccc2)n1 [NCL214] | – | – | – | – | – | – | MIC (μg/ml) at 24 hours, MRSA 1 ([1]; MRSA 1, 24 hours): >128 µg/mL; MIC (μg/ml) at 24 hours, MRSA 2 ([1]; MRSA 2, 24 hours): >128 µg/mL; MIC (μg/ml) at 24 hours, VRE 1 ([2]; VRE 1, 24 hours): >128 µg/mL; MIC (μg/ml) at 24 hours, VRE 2 ([2]; VRE 2, 24 hours): >128 µg/mL; MIC (μg/ml) at 24 hours, E. coli ([3]; E. coli): >128 µg/mL; MIC (μg/ml) at 24 hours, P. aeruginosa ([4]; P. aeruginosa): >128 µg/mL
Cl.N=C(NN=Cc1ccc(OC(F)(F)F)cc1)NN=Cc1ccc(OC(F)(F)F)cc1 [NCL 160] | 32 µg/mL and 64 µg/mL | 128 | 16 | 64 µg/mL | >128 | >128 | –
Cl.N=C(NN=Cc1ccc([N+](=O)[O-])cc1)NN=Cc1ccc([N+](=O)[O-])cc1 [NCL110] | >128 µg/mL | >128 | >128 | >128 µg/mL | >128 | >128 | –
COc1ccc(/C=N/NC(=O)N/N=C/c2ccc(OC)cc2)cc1 [NCL006] | – | – | – | – | – | – | MIC (μg/ml) at 24 hours, MRSA 1 [1, 5]: >128 µg/mL; MIC (μg/ml) at 24 hours, MRSA 2 [1, 6]: >128 µg/mL; MIC (μg/ml) at 24 hours, VRE 1 [2, 7]: >128 µg/mL; MIC (μg/ml) at 24 hours, VRE 2 [2, 8]: >128 µg/mL; MIC (μg/ml) at 24 hours, E. coli ([3]; 1st and 2nd replicate rows): >128 µg/mL; MIC (μg/ml) at 24 hours, P. aeruginosa ([4]; 1st and 2nd replicate rows): >128 µg/mL
Nc1nc(N/N=C/c2cccc(O)c2)nc(N/N=C/c2cccc(O)c2)n1 [NCL209] | – | – | – | – | – | – | MIC (μg/ml) at 24 hours, MRSA 1 ([1]; MRSA 1, 24 hours): >128 µg/mL; MIC (μg/ml) at 24 hours, MRSA 2 ([1]; MRSA 2, 24 hours): >128 µg/mL; MIC (μg/ml) at 24 hours, VRE 1 ([2]; VRE 1, 24 hours): >128 µg/mL; MIC (μg/ml) at 24 hours, VRE 2 ([2]; VRE 2, 24 hours): >128 µg/mL; MIC (μg/ml) at 24 hours, E. coli ([3]; E. coli): >128 µg/mL; MIC (μg/ml) at 24 hours, P. aeruginosa ([4]; P. aeruginosa): >128 µg/mL
